The assay has as its target T1, human S1P1 receptor (Homo sapiens, UniProt P21453).
T1 construct: expressed in transfected cells; membranes used
Nature of the assay: GTP γ35S binding assay for S1P1 activity. It is filed as biochemical. Conditions: membranes of cells stably expressing the S1P1 receptor, test concentrations 0.08 to 5,000 nM. The protocol: Compounds of the invention were tested for S1P1 activity using the GTP γ^35S binding assay. These compounds may be assessed for their ability to activate or block activation of the human S1P1 receptor in cells stably expressing the S1P1 receptor.
GTP γ^355 binding was measured in the medium containing (mM) HEPES 25, pH 7.4, MgCl2 10, NaCl 100, dithiothreitol 0.5, digitonin 0.003%, 0.2 nM GTP γ^355, and 5 μg membrane protein in a volume of 150 μl. Test compounds were included in the concentration range from 0.08 to 5,000 nM unless indicated otherwise. Membranes were incubated with 100 μM 5′adenylylimidodiphosphate for 30 min, and subsequently with 10 μM GDP for 10 min on ice. Drug solutions and membrane were mixed, and then reactions were initiated by adding GTP γ^355 and continued for 30 min at 25° C. Reaction mixtures were filtered over Whatman GF/B filters under vacuum, and washed three times with 3 mL of ice-cold buffer (HEPES 25, pH 7.4, MgCl2 10 and NaCl 100). Filters were dried and mixed with scintillant, and counted for ^35S activity using a β-counter. Agonist-induced GTP γ^35S binding was obtained by subtracting that in the absence of agonist. Binding data were analyzed using a non-linear regression method. In case of antagonist assay, the reaction mixture contained 10 nM S1P in the presence of test antagonist at concentrations ranging from 0.08 to 5000 nM.

SMILES strings stand for the structures.

The EC50 is the midpoint of the concentration-response curve.

T1 sequence (P21453 whole entry): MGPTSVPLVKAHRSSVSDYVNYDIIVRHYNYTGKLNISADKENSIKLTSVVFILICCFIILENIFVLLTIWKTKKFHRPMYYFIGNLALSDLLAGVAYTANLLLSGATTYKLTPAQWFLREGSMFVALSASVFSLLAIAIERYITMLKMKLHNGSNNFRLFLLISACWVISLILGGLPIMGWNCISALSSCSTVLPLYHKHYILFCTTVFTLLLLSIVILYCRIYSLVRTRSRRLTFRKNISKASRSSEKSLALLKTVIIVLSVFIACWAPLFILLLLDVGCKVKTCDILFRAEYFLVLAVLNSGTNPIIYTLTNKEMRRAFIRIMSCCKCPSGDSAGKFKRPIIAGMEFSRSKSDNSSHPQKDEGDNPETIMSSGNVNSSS

`CCCN1N=C(COc2ccc(CNCCCP(=O)(O)O)cc2C)CC1c1ccccc1` (stereo not shown) [Compound 1, [3-({3-Methyl-4-[(5-phenyl-1-propyl-4,5-dihydro-1H-pyrazol-3-yl)methoxy]benzyl}amino)propyl]phosphonic acid] came in with an EC50 of 0.057 µM. In other words, the double-digit nanomolar range.

The values above are taken from patent US8987471B2, “Substituted dihydropyrazoles as sphingosine receptor modulators” (Allergan, Inc., priority 2013, dated 2015).
